Values joined by “and” are separate entries in the source; they are usually repeats but may differ in a detail not shown here. Equal values may be shown once. Active and inactive are the calls of the source. No rule for the calls is given here.
These compounds were tested against Perilipin-5 (Homo sapiens) + 1-acylglycerol-3-phosphate O-acyltransferase ABHD5 (Homo sapiens) (UniProt Q00G26+Q8WTS1) (assay: blockers of ABHD5 binding to perilipin-5 – cell lysate, luminescence, proteins expressed in HEK293T, dose response (AID 651733;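 also: split Gaussia princeps luciferase complementation between ABHD5 and MLDP fusion proteins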)). Conditions: ABHD5-PLIN5 interaction.
Sequence of Perilipin-5 (Homo sapiens) + 1-acylglycerol-3-phosphate O-acyltransferase ABHD5 (Homo sapiens) (Q00G26 whole entry, looked up, the tested form may be a part): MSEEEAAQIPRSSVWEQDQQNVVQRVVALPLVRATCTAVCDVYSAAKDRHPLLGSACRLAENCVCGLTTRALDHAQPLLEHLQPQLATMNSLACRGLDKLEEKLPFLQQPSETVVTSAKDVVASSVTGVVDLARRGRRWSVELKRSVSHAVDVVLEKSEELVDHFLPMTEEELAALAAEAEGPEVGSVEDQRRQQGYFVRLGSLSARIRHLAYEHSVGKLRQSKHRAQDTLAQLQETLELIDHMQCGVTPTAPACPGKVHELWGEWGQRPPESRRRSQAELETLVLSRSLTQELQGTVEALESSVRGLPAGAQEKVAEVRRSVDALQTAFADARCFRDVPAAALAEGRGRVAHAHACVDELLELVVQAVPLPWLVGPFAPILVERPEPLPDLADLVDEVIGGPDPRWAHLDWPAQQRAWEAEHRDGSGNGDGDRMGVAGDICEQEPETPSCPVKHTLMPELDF
Sequence of Perilipin-5 (Homo sapiens) + 1-acylglycerol-3-phosphate O-acyltransferase ABHD5 (Homo sapiens) (Q8WTS1 whole entry, looked up, the tested form may be a part): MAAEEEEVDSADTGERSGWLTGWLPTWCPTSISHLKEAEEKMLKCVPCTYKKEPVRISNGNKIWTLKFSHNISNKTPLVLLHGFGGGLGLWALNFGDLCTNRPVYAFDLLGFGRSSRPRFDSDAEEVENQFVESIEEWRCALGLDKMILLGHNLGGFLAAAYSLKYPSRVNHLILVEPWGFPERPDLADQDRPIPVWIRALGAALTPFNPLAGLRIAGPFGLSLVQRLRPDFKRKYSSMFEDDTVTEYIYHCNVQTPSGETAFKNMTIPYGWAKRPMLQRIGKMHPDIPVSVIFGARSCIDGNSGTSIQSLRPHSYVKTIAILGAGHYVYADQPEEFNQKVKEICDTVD
Work on CSc1nnc(NC(=O)c2nc(S(=O)(=O)Cc3ccccc3)ncc2Cl)s1 yielded an IC50 of 4.13 µM. In the case of C#CCN(C[C@@H]1[C@@H](OC(=O)NCc2ccccc2F)[C@@H](OC(=O)NCc2ccccc2F)Cn2c(=O)ccc(=O)n21)S(=O)(=O)c1ccc(C)cc1, the IC50 is reported as 6.28 µM. CCC(c1nc2ccccc2[nH]1)n1c(=O)c(-c2ccco2)nc2ccccc21 (configuration not stated) gave an IC50 of 5.45 µM. In the case of CSC(=Nc1ccccc1)N=C(SCc1ccccc1)N(C)C, the IC50 is reported as 1.19 µM. Compound CSc1nnc(NC(=O)c2nc(S(=O)(=O)Cc3cccc(C)c3)ncc2Cl)s1 has an IC50 of 3.59 µM. In the case of COc1cc(OC)cc(C(=O)NC(=S)N(Cc2ccccc2)C(C)C)c1, the IC50 is reported as “inactive”. Cc1cccc(C)c1NC(=O)C(c1ccccc1F)n1c(=O)c(-c2ccco2)nc2ccccc21 (configuration not stated) was tested, and the IC50 was 5.65 µM. With CN1[C@@H]2CC[C@H]1CC(OC1c3ccccc3CCc3ccccc31)C2 (some centres not stated) the IC50 was 2.38 µM. In the case of COc1ccc(NC(=O)C(c2ccccc2)n2c(=O)c(-c3ccco3)nc3ccccc32)cc1 (configuration not stated), the IC50 is reported as “inactive”. CCOC(=O)/C(=C\c1ccc(Cl)cc1)c1nc2sc(C)c(C)c2c(=O)[nH]1 was tested, and the IC50 was 0.862 µM. With Cc1ccc2sc(N(CCCN(C)C)C(=O)CN3C(=O)c4ccccc4C3=O)nc2c1C the IC50 was “inactive”. For C#CCOCCOCCOCCNc1nc(N2CCN(C(=O)CCCCCCCCCCNC(=O)[C@@H](CCSC)n3cc(CCO)nn3)CC2)nc(N2CCN(C(=O)CCCCCCCCCCNC(=O)[C@@H]([C@H](C)O)n3cc(C)nn3)CC2)n1, the IC50 was “inactive”. With CCCc1nnc(NC(=O)c2nc(S(=O)(=O)Cc3cccc(C)c3)ncc2Cl)s1 the IC50 was 4.91 µM. Cc1cc(C)c(NC(=O)C[N+](C)(C)CC(O)COc2cccc3ccccc23)c(C)c1 (configuration not stated) was tested, and the IC50 was 8.93 µM. CCN(CC)CCOCCOC(=O)C1(c2ccccc2)CCCC1 gave an IC50 of 2.17 µM. For NC(=O)C(C(=O)/C=C/c1ccc(Cl)cc1)=C1SCCS1, the IC50 was “inactive”. In the case of COc1ccc(/C=C/C(=O)c2cc(F)ccc2OC(=O)c2ccc(OC)c(OC)c2)cc1OC, the IC50 is reported as 3.22 µM. O=[N+]([O-])/C=C/c1cn(Cc2ccc(F)cc2)c2ccccc12 showed an IC50 of 7.06 µM. For CCOC(=O)N1CCN(C(=O)C[C@@H]2C[C@@]3(C(=O)OCC)CCC=C3N(Cc3ccc(Cl)cc3Cl)C2=O)CC1, the IC50 was 7.45 µM. Compound O=C1/C(=C/c2cccnc2)CC/C1=C\c1cccnc1 has an IC50 of 4.26 µM. In the case of CCCCCCC=C1CCC(CN2CCCC2)C1=O (configuration not stated), the IC50 is reported as 2.15 µM. With Cc1ccc(S(=O)(=O)N2C[C@@]3(O)Cn4c(=O)ccc(=O)n4C[C@@]3(OC(=O)NCC3CCCCC3)C2)cc1 the IC50 was “inactive”. With CC(=O)Nc1ccc(S(=O)(=O)N2c3ccc(F)cc3CCC2C)cc1 (configuration not stated) the IC50 was “inactive”. In the case of N#Cc1ccc(C(C(=O)Nc2ccc3c(c2)OCCO3)n2c(=O)c(-c3ccco3)nc3ccccc32)cc1 (configuration not stated), the IC50 is reported as “inactive”. With CN(C)CCCNC(=O)c1ccc(-c2nc(-c3ccc(Cl)cc3)cs2)cc1 the IC50 was “inactive”. Compound CCOc1cc(/C=C2\CCC/C(=C\c3cc(Cl)c(O)c(OCC)c3)C2=O)cc(Cl)c1O has an IC50 of 3.55 µM. For CCC(=O)Nc1cccc(C(=O)/C=C/c2ccccc2)c1, the IC50 was 3.05 µM. Work on Oc1c(C(c2ccccc2)N2CCCCC2)ccc2ccccc12 (configuration not stated) yielded an IC50 of 1.73 µM. For CC1=CC2C(C(O)CC3(C)C2CC(C)C32OCOC23COCO3)C2(C)C/C(=C\O)C(=O)C=C12 (configuration not stated), the IC50 was 3.6 µM. With O=C(NCc1ccccc1)C(c1ccc(-c2ccccc2)cc1)n1c(=O)c(-c2ccco2)nc2ccccc21 (configuration not stated) the IC50 was 5.97 µM. For COc1ccccc1-c1cc(C(=O)NC2CCN(C)CC2)c2ccc(Cl)c(C)c2n1, the IC50 was “inactive”. CCN1C/C(=C/c2ccc(OC)c(O)c2)C(=O)/C(=C/c2ccc(OC)c(O)c2)C1 was tested, and the IC50 was 7.28 µM. For CCCCCNC(=O)C(c1cccc2ccccc12)n1c(=O)c(-c2ccco2)nc2ccccc21 (configuration not stated), the IC50 was 4.25 µM. O=C(NCc1ccccc1)C(c1ccc(C(F)(F)F)cc1)n1c(=O)c(-c2ccco2)nc2ccccc21 (configuration not stated) showed an IC50 of 3.15 µM. In the case of Cc1cccc(C)c1NC(=O)C(c1ccnc2ccccc12)n1c(=O)c(-c2ccco2)nc2ccccc21 (configuration not stated), the IC50 is reported as 6.13 µM. In the case of CC(C)(C)NC(=O)C(c1ccnc2ccccc12)n1c(=O)c(-c2ccco2)nc2ccccc21 (configuration not stated), the IC50 is reported as 8.16 µM. Work on CN(C)CCOC1(Cc2ccc(F)cc2)CCC(C(C)(C)C)CC1 (configuration not stated) yielded an IC50 of 6.65 µM. Work on CC(C)(C)NC(=O)C(c1ccc(C(F)(F)F)cc1)n1c(=O)c(-c2ccco2)nc2ccccc21 (configuration not stated) yielded an IC50 of 6.67 µM. In the case of COc1ccc(NC(=S)N(CCCN2CCCC2)Cc2cccn2Cc2ccc(Cl)cc2)cc1Cl, the IC50 is reported as “inactive”. CN(C)CCN(Cc1ccco1)c1ccccn1 showed an IC50 of 4.4 µM. For Cc1ccc(C(=O)c2c(C)oc3c2C(=O)C(=O)c2ccccc2-3)cc1, the IC50 was 5.87 µM. Work on O=C(NC1CCCCC1)C(c1ccc(C(F)(F)F)cc1)n1c(=O)c(-c2ccco2)nc2ccccc21 (configuration not stated) yielded an IC50 of 3.81 µM. Compound O=C(O)CC(O)(CC(=O)O)C(=O)O has an IC50 of 3.54 µM. Compound N#Cc1ccc(C(C(=O)NC2CCCCC2)n2c(=O)c(-c3ccco3)nc3ccccc32)cc1 (configuration not stated) has an IC50 of 4.03 µM. Work on CSc1nnc(NC(=O)c2nc(S(=O)(=O)Cc3ccccc3F)ncc2Cl)s1 yielded an IC50 of 3.66 µM. Compound CC1=CC(C)(C)Nc2ccc(OC(=O)c3cccnc3)cc21 has an IC50 of 3.25 µM. Compound CCN1CCN(Cc2ccc(NC(=O)c3ccc(C)c(/C=C/c4cnc(Nc5cc(N6CCNCC6)nc(C)n5)cn4)c3)cc2C(F)(F)F)CC1 has an IC50 of 6.01 µM. CCCC(=O)NC(c1cccc([N+](=O)[O-])c1)c1ccc2cccnc2c1O (configuration not stated) was tested, and the IC50 was “inactive”. For COc1ccc(NC(=O)c2cc3ccccc3cc2O)cc1, the IC50 was “inactive”. Work on COc1ccccc1C=CC(=O)C=Cc1ccccc1OC yielded an IC50 of 6.63 µM. In the case of COc1cc(C)c2sc3ccccc3c(=O)c2c1NCCN(C)C, the IC50 is reported as 3.94 µM. For COCCN(CCOC)c1nc(N)c2c(N)nc3c(c2c1C#N)CC(=O)N3Cc1ccc(Cl)cc1, the IC50 was “inactive”. CCc1nnc(NC(=O)c2nc(S(=O)(=O)Cc3cccc(C)c3)ncc2Cl)s1 showed an IC50 of 4.49 µM. Compound CC(=O)Nc1ccc(OCc2cn(CC(=O)c3ccc(O)cc3)nn2)cc1 has an IC50 of 3.76 µM. In the case of NC(=NCCCCCCN=C(N)/N=C(\N)Nc1ccc(Cl)cc1)/N=C(\N)Nc1ccc(Cl)cc1, the IC50 is reported as 6 µM and 4.02 µM. O=C(NCc1ccccc1)C(c1cccc2ccccc12)n1c(=O)c(-c2ccco2)nc2ccccc21 (configuration not stated) showed an IC50 of 4.2 µM. With CCC(C)NC(=O)Nc1ccc2c(c1)N(C)C(=O)c1ccccc1S2 (configuration not stated) the IC50 was 3.6 µM. With COC(=O)c1cc(=O)n(-c2ccc(F)cc2)c(=Nc2ccc(F)cc2)s1 the IC50 was 3.34 µM. For COc1ccc(C)c2sc(N(CCN(C)C)C(=O)/C=C/c3cccs3)nc12, the IC50 was > 13.3 µM (inactive). With N#Cc1ccc(C(C(=O)NCc2ccccc2)n2c(=O)c(-c3ccco3)nc3ccccc32)cc1 (configuration not stated) the IC50 was 2.85 µM. C#CCN(C[C@@H]1[C@@H](OC(=O)Nc2cccs2)[C@@H](OC(=O)Nc2cccs2)Cn2c(=O)ccc(=O)n21)S(=O)(=O)c1ccc(C)cc1 gave an IC50 of 3.06 µM. For CCOC(=O)C1C(OC(=O)c2ccccc2)CC2CCC1N2C (configuration not stated), the IC50 was 5.69 µM. Compound CCN(CCCc1ccccc1)CCCc1ccccc1 has an IC50 of 2.62 µM. C#CCN(C[C@@H]1[C@@H](OC(=O)NCc2ccc(OC)c(OC)c2)[C@@H](OC(=O)NCc2ccc(OC)c(OC)c2)Cn2c(=O)ccc(=O)n21)S(=O)(=O)c1ccc(C)cc1 gave an IC50 of 5.74 µM. Work on O=C(NCc1ccccc1)C(c1cc2ccccc2o1)n1c(=O)c(-c2ccco2)nc2ccccc21 (configuration not stated) yielded an IC50 of 4.86 µM. Work on Cc1cc(C)c(C(CC(=O)c2cccs2)C(C#N)C#N)c(C)c1 (configuration not stated) yielded an IC50 of 8.57 µM. Cc1ccc(CC2(OCCN(C)C)CCC(C(C)(C)C)CC2)cc1 (configuration not stated) was tested, and the IC50 was 4.85 µM. In the case of CCSc1ccc2c(c1)N(CCCN1CCN(C)CC1)c1ccccc1S2, the IC50 is reported as 5.95 µM. CCCCNC(=O)Nc1ccc2c(c1)N(C)C(=O)c1ccccc1S2 gave an IC50 of 3.6 µM. CCC1(C)N=C(c2ccc3c(c2)OCO3)CC(c2ccccc2O)N1 (configuration not stated) gave an IC50 of 1.93 µM. CCOC(=O)c1c(NC(C)=O)sc2c1CCC(C=O)=C2Sc1ccccc1 gave an IC50 of 3.1 µM. For O=C(C[n+]1cccc(CNC(=O)c2ccc(OC(F)F)cc2)c1)Nc1cccc(C(F)(F)F)c1, the IC50 was “inactive”. Work on CC1=CC(C)(C)Nc2ccc(OC(=O)CN3C(=O)C4CCCCC4C3=O)cc21 (configuration not stated) yielded an IC50 of 4 µM. Work on O=C(/C(=C/c1ccccc1)n1cncn1)c1ccc(Cl)cc1Cl yielded an IC50 of 2.13 µM. For O=C(NC1CCCCC1)C(c1cccc2ccccc12)n1c(=O)c(-c2ccco2)nc2ccccc21 (configuration not stated), the IC50 was 2.33 µM. With CC1CCN(S(=O)(=O)c2ccc(NC(=O)Cc3cccs3)cc2)CC1 the IC50 was 8.04 µM. With O=C(Cn1c(=O)n(Cc2ccco2)c(=O)c2c3c(sc21)CCCC3)Nc1ccccc1 the IC50 was “inactive”. For O=C(COc1ccccc1Cl)Nc1ccc(N2CCCC2)cc1, the IC50 was > 39.9 µM (inactive). O=C(NC1CCCCC1)C(c1ccnc2ccccc12)n1c(=O)c(-c2ccco2)nc2ccccc21 (configuration not stated) showed an IC50 of 4.42 µM. In the case of Cc1cc(C)c(NC(=O)CN2CCN3CCCC3C2)c(C)c1 (configuration not stated), the IC50 is reported as 4.81 µM. For CCN(CC)CCC(C)OC(c1ccccc1)c1ccccc1 (configuration not stated), the IC50 was 3.29 µM. CN(C)CCCN(C(=O)CCc1ccccc1)c1nc2ccc(Cl)cc2s1 was tested, and the IC50 was “inactive”. O=C(CF)N(O)c1ccc(C=Cc2ccccc2)cc1 was tested, and the IC50 was > 39.9 µM (inactive). Compound C#CCN(C[C@@H]1[C@@H](OC(=O)NC2CCCC2)[C@@H](OC(=O)NC2CCCC2)Cn2c(=O)ccc(=O)n21)S(=O)(=O)c1ccc(C)cc1 has an IC50 of 7.83 µM. O=c1nc(/C=C/c2ccc(Cl)cc2Cl)cc(C(F)(F)F)[nH]1 showed an IC50 of 2.98 µM. For COc1ccc(C(C(=O)Nc2c(C)cccc2C)n2c(=O)c(-c3ccco3)nc3ccccc32)cc1 (configuration not stated), the IC50 was 4.29 µM. Compound CCN(CC)CCN(CC(=O)Nc1c(C)cc(C)cc1C)C(=O)c1ccccc1 has an IC50 of 3.93 µM. CC(C)(C)NC(=O)C(C1CC1)n1c(=O)c(-c2ccco2)nc2ccccc21 (configuration not stated) was tested, and the IC50 was 7.1 µM. Work on CN(C)c1ccc(Cc2cc3c(O)ccc(O)c3cc(Cc3ccc(N(C)C)cc3)c2=O)cc1 yielded an IC50 of 4.13 µM. Compound Cc1ccc2nc3cc([N+](=O)[O-])cc([N+](=O)[O-])c3cc2c1 has an IC50 of 1.09 µM. CCOC(=O)C1CCCN(C(=O)c2cc(Nc3ccc(OC)cc3)nc3ccccc23)C1 (configuration not stated) was tested, and the IC50 was “inactive”. CCOC(=O)c1c(C)oc2c1c(CN1CCN(CCO)CC1)c(O)c1ccccc12 gave an IC50 of 3.58 µM. COc1cccc2sc(N(CCCN(C)C)C(=O)COc3ccc(Cl)cc3)nc12 was tested, and the IC50 was “inactive”. With CCN1/C(=C/C=C/c2oc3ccc(-c4ccccc4)cc3[n+]2CC)Oc2ccc(-c3ccccc3)cc21 the IC50 was 1.12 µM. For Cc1ccc(CS(=O)(=O)c2ncc(Cl)c(C(=O)Nc3nnc(C(C)C)s3)n2)cc1, the IC50 was 2.88 µM. O=C(NC1CCCCC1)C(c1cc2ccccc2o1)n1c(=O)c(-c2ccco2)nc2ccccc21 (configuration not stated) gave an IC50 of 3.47 µM. In the case of COC(=O)c1ccc(Cn2cc(/C=C\[N+](=O)[O-])c3ccccc32)o1, the IC50 is reported as “inactive”.

Source: PubChem BioAssay AID651733 (The Scripps Research Institute Molecular Screening Center, 2012)
